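Grown in 96-well plates, cells were treated for 48 hours with each compound at five concentrations. Insufficient inhibition: endpoint recorded as highest concentration tested. Definition used: TGI = concentration required for complete inhibition of growth.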
Columns and labels:
Experiment in all cases: NCI tumour cell line growth inhibition, 48 h
SNB-78 CNS = tested on: SNB-78 CNS
ACHN renal = tested on: ACHN renal
SK-MEL-2 melanoma = tested on: SK-MEL-2 melanoma
SNB-75 CNS = tested on: SNB-75 CNS
HOP-18 NSCLC = tested on: HOP-18 NSCLC
SK-MEL-28 melanoma = tested on: SK-MEL-28 melanoma
KM20L2 colon = tested on: KM20L2 colon
RPMI-8226 leukemia = tested on: RPMI-8226 leukemia
CCRF-CEM leukemia = tested on: CCRF-CEM leukemia
UACC-62 melanoma = tested on: UACC-62 melanoma
TK-10 renal = tested on: TK-10 renal
SN12C renal = tested on: SN12C renal
NCI-H226 lung = tested on: NCI-H226 lung
NCI-H460 lung = tested on: NCI-H460 lung
XF 498 CNS = tested on: XF 498 CNS
OVCAR-8 ovarian = tested on: OVCAR-8 ovarian
K-562 leukemia = tested on: K-562 leukemia
OVCAR-3 ovarian = tested on: OVCAR-3 ovarian
NCI-H23 lung = tested on: NCI-H23 lung
CAKI-1 renal = tested on: CAKI-1 renal
HOP-62 NSCLC = tested on: HOP-62 NSCLC
SF-268 CNS = tested on: SF-268 CNS
DLD-1 colon = tested on: DLD-1 colon
HCT-116 colon = tested on: HCT-116 colon
EKVX NSCLC = tested on: EKVX NSCLC
HT29 colon = tested on: HT29 colon
KM12 colon = tested on: KM12 colon
A549 NSCLC = tested on: A549 NSCLC
HCC-2998 colon = tested on: HCC-2998 colon
UACC-257 melanoma = tested on: UACC-257 melanoma
SK-OV-3 ovarian = tested on: SK-OV-3 ovarian
OVCAR-5 ovarian = tested on: OVCAR-5 ovarian
HL-60(TB) leukemia = tested on: HL-60(TB) leukemia
786-0 renal = tested on: 786-0 renal
HCT-15 colon = tested on: HCT-15 colon
IGROV1 ovarian = tested on: IGROV1 ovarian
MALME-3M melanoma = tested on: MALME-3M melanoma
DMS 114 small cell lung = tested on: DMS 114 small cell lung
UO-31 renal = tested on: UO-31 renal
M14 melanoma = tested on: M14 melanoma
SNB-19 CNS = tested on: SNB-19 CNS
SK-MEL-5 melanoma = tested on: SK-MEL-5 melanoma
RXF 393 renal = tested on: RXF 393 renal
MOLT-4 leukemia = tested on: MOLT-4 leukemia
SW-620 colon = tested on: SW-620 colon
HOP-92 NSCLC = tested on: HOP-92 NSCLC
SF-539 CNS = tested on: SF-539 CNS
A498 renal = tested on: A498 renal
SF-295 CNS = tested on: SF-295 CNS
LOX IMVI melanoma = tested on: LOX IMVI melanoma
COLO 205 colon = tested on: COLO 205 colon
OVCAR-4 ovarian = tested on: OVCAR-4 ovarian
M19-MEL melanoma = tested on: M19-MEL melanoma
RXF-631 renal = tested on: RXF-631 renal
LXFL 529 NSCLC = tested on: LXFL 529 NSCLC
DMS 273 small cell lung = tested on: DMS 273 small cell lung
NCI-H522 lung = tested on: NCI-H522 lung
SR leukemia = tested on: SR leukemia
U251 CNS = tested on: U251 CNS

Measured: TGI

COC(=O)C1N=CSCC1(C)O (stereo unspecified)
not listed: RXF-631 renal | LXFL 529 NSCLC | DMS 273 small cell lung | NCI-H522 lung | SR leukemia | U251 CNS
> 100 µM: all other assays above

O=C(O)Cn1c(=O)[nH]c(=O)c2[nH]cnc21
not listed: RPMI-8226 leukemia | NCI-H226 lung | XF 498 CNS | CAKI-1 renal | HOP-92 NSCLC | SF-295 CNS
> 100 µM: all other assays above

Reference: PubChem BioAssay (NCI)
